Experiments:
Rice = assay: Weed control test, 4-leaf stage plants (Test Example 1, Table 8)
Method: Seeds of rice, wheat, soy bean, barley, corn, common sorgum, barnyard grass, large crabgrass, creek grass, green foxtail and fall panicum were placed in sandy loam in 600 cm^2 pots and covered with soil. After keeping the pots in a greenhouse at 20 to 30° C. allowing growth of the plants to the 3-leaf stage of the barnyard grass, 2,000 l/ha of an emulsion obtained by diluting with water a mixture of 1 part by weight of a test compound, 5 parts by weight of acetone and 1 part by weight of an emulsifying agent (Tween 80, Junsei) was applied to the surface of the foliage of the plants. The plant damage at 10 days and 20 days after the foliage treatment was visually evaluated from the level of 1 to 100% by comparison with the untreated control: […]

Barnyard grass = assay: as above; format: in vivo, Echinoch crus-galli Beauv. var. caudata Kitagawa
[1] = tested on: TRZAW (Tritium aestivum L., wheat); assay: Weed control test, foliage treatment (Test Example 1, Table 7)
[2] = tested on: HORVU (Hordeum vulgare L., barley); assay: as above
[3] = tested on: GLXMA (Glycine max(L.) MERR, soy bean); assay: as above
[4] = tested on: ORYSA (Oryza sativa cv. Dongjin, rice); assay: as above
[5] = tested on: Echinochloa crus-galli var. crus-galli; assay: Foliage treatment with emulsions, dry rice field conditions (Test Example 2, Table 9); format: in vivo; details: 150 g a.i./ha; emulsion of Formulation Example 3; division stage 1~2; 20 days after foliage treatment
Source text: (§1) Seeds of rice (Nampyung rice) and barnyard grasses (Echinochloa oryzicola and Echinochloa crus-galli var. crus-galli) were placed in sandy loam of pots, covered with soil, and grown in the dry rice field conditions.
(§2) Rice (6˜6.5-leaf stage, plant height 33.2 cm) and barnyard grasses (Echinochloa oryzicola: division stage 1˜2, plant height 38.0 cm, Echinochloa crus-galli var. crus-galli: division stage 1˜2, plant height 44.1 cm) were subjected to a foliage treatment with emulsions prepared according to Formulation Example 3 by using compounds of Examples 1, 5 and 13 (purity: 99% or more), wherein the emulsions were sprayed to the plants at a dosage of the active compound of 150 g/ha.
(§3) The herbicidal effect on the barnyard grasses and harmful effect on the rice of the test compounds at 20 days and 30 days after the foliage treatment were visually evaluated as in Test Example 1 in comparison with the untreated control, and the results are shown in Table 9.

Echinochloa oryzicola = assay: as above; format: in vivo; details: 150 g a.i./ha; emulsion of Formulation Example 3; division stage 1~2; 20 days after foliage treatment
Source text: as §1, §2, §3

[6] = tested on: ECHOG (Echinoch crus-galli Beauv. var. caudata Kitagawa, barnyard grass); assay: Weed control test, foliage treatment (Test Example 1, Table 7); format: in vivo; details: 3-leaf stage
How it was run: (§4)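 Each compound was mixed with acetone and emulsifier (1:5:1 by weight), diluted in water, and sprayed over the foliage at 2,000 l/ha, timed to the 3-leaf stage of barnyard grass. Growth conditions were sandy loam in a greenhouse at 20 to 30° C. Damage ratings of 1 to 100% against untreated plants followed at days 10 and 20.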

[7] = tested on: SETVIR (Setaria viridis (L.) Beauv, green foxtail); assay: as above; format: in vivo
How it was run: as §4

[8] = tested on: SORBI (Andropogon sorghum, common sorgum); assay: as above; format: in vivo
How it was run: as §4

[9] = tested on: PANDI (Panium dichotomiflorum Michx, fall panicum); assay: as above; format: in vivo
How it was run: as §4

[10] = tested on: ARTHIS (Arthraxon hispidus (Thunb.) Makino, creek grass); assay: as above; format: in vivo
How it was run: as §4

[11] = tested on: ZEAMX (Zea mays L., corn); assay: as above; format: in vivo
How it was run: as §4

[12] = tested on: DIGSA (Digitaria Sanguinalis (L.) SCOP, large crabgrass); assay: as above; format: in vivo
How it was run: as §4

rice (Nampyung rice) = assay: Foliage treatment with emulsions, dry rice field conditions, harmful effect on rice (Test Example 2, Table 9); format: in vivo; details: 6~6.5-leaf stage, 150 g a.i./ha, emulsion; for Harmful effect, 20 days: 20 days after foliage treatment; for Harmful effect, 30 days: 30 days after foliage treatment
Source text: as §1

## C[C@@H](Oc1ccc(Oc2nc3ccc(Cl)cc3o2)cc1)C(=O)Nc1nc2cc(Cl)ccc2o1 [Example 1, (R)-2-[4-(6-chloro-2-benzoxazolyloxy)phenoxy]propionic acid-N-(5-chloro-2-benzoxazolyl)amide]
Rice; in vivo
  Plant damage (herbicidal activity), visually evaluated, Rice: 0%
Barnyard grass; 0.025 kg/ha
  Plant damage (herbicidal activity), visually evaluated, Barnyard grass: 70%
Barnyard grass; 0.05 kg/ha
  Plant damage (herbicidal activity), visually evaluated, Barnyard grass: 90%
Barnyard grass; 0.1 kg/ha
  Plant damage (herbicidal activity), visually evaluated, Barnyard grass: 100%
Barnyard grass; 0.4 kg/ha
  Plant damage (herbicidal activity), visually evaluated, Barnyard grass: 100%
[1]; in vivo
  Plant damage (herbicidal activity), visually evaluated, TRZAW: 0%
[2]; in vivo
  Plant damage (herbicidal activity), visually evaluated, HORVU: 0%
[3]; in vivo
  Plant damage (herbicidal activity), visually evaluated, GLXMA: 0%
[4]; in vivo
  Plant damage (herbicidal activity), visually evaluated, ORYSA: 0%
[5]
  Herbicidal effect (0~100), 20 days, Echinochloa crus-galli var. crus-galli: 100%
Echinochloa oryzicola
  Herbicidal effect (0~100), 20 days, Echinochloa oryzicola: 100%
[6]; Echinochloa crus-galli, foliar, 0.025 kg/ha, read-out: Plant damage (herbicidal activity), visually evaluated, ECHOG
  pest or weed control at 25 g/ha: 95%
[6]; Echinochloa crus-galli, foliar, 0.1 kg/ha, read-out: Plant damage (herbicidal activity), visually evaluated, ECHOG
  pest or weed control at 100 g/ha: 100%
[6]; Echinochloa crus-galli, foliar, 0.2 kg/ha, read-out: Plant damage (herbicidal activity), visually evaluated, ECHOG
  pest or weed control at 200 g/ha: 100%
[7]; Setaria viridis, foliar, 0.025 kg/ha, read-out: Plant damage (herbicidal activity), visually evaluated, SETVIR
  pest or weed control at 25 g/ha: 70%
[7]; Setaria viridis, foliar, 0.1 kg/ha, read-out: Plant damage (herbicidal activity), visually evaluated, SETVIR
  pest or weed control at 100 g/ha: 100%
[7]; Setaria viridis, foliar, 0.2 kg/ha, read-out: Plant damage (herbicidal activity), visually evaluated, SETVIR
  pest or weed control at 200 g/ha: 100%
[8]; Sorghum bicolor, foliar, 0.025 kg/ha, read-out: Plant damage (herbicidal activity), visually evaluated, SORBI
  pest or weed control at 25 g/ha: 60%
[8]; Sorghum bicolor, foliar, 0.1 kg/ha, read-out: Plant damage (herbicidal activity), visually evaluated, SORBI
  pest or weed control at 100 g/ha: 100%
[8]; Sorghum bicolor, foliar, 0.2 kg/ha, read-out: Plant damage (herbicidal activity), visually evaluated, SORBI
  pest or weed control at 200 g/ha: 100%
[9]; Panicum dichotomiflorum, foliar, 0.025 kg/ha, read-out: Plant damage (herbicidal activity), visually evaluated, PANDI
  pest or weed control at 25 g/ha: 90%
[9]; Panicum dichotomiflorum, foliar, 0.1 kg/ha, read-out: Plant damage (herbicidal activity), visually evaluated, PANDI
  pest or weed control at 100 g/ha: 100%
[9]; Panicum dichotomiflorum, foliar, 0.2 kg/ha, read-out: Plant damage (herbicidal activity), visually evaluated, PANDI
  pest or weed control at 200 g/ha: 100%
[10]; Arthraxon hispidus, foliar, 0.025 kg/ha, read-out: Plant damage (herbicidal activity), visually evaluated, ARTHIS
  pest or weed control at 25 g/ha: 70%
[10]; Arthraxon hispidus, foliar, 0.1 kg/ha, read-out: Plant damage (herbicidal activity), visually evaluated, ARTHIS
  pest or weed control at 100 g/ha: 100%
[10]; Arthraxon hispidus, foliar, 0.2 kg/ha, read-out: Plant damage (herbicidal activity), visually evaluated, ARTHIS
  pest or weed control at 200 g/ha: 100%
[11]; Zea mays, foliar, 0.025 kg/ha, read-out: Plant damage (herbicidal activity), visually evaluated, ZEAMX
  plant injury at 25 g/ha: 30%
[11]; Zea mays, foliar, 0.1 kg/ha, read-out: Plant damage (herbicidal activity), visually evaluated, ZEAMX
  plant injury at 100 g/ha: 100%
[11]; Zea mays, foliar, 0.2 kg/ha, read-out: Plant damage (herbicidal activity), visually evaluated, ZEAMX
  plant injury at 200 g/ha: 100%
[12]; Digitaria sanguinalis, foliar, 0.025 kg/ha, read-out: Plant damage (herbicidal activity), visually evaluated, DIGSA
  pest or weed control at 25 g/ha: 90%
[12]; Digitaria sanguinalis, foliar, 0.1 kg/ha, read-out: Plant damage (herbicidal activity), visually evaluated, DIGSA
  pest or weed control at 100 g/ha: 100%
[12]; Digitaria sanguinalis, foliar, 0.2 kg/ha, read-out: Plant damage (herbicidal activity), visually evaluated, DIGSA
  pest or weed control at 200 g/ha: 100%
Rice (Nampyung rice)
  Harmful effect, 20 days: 0%
  Harmful effect, 30 days: 0%

## CCOC(=O)[C@@H](C)Oc1ccc(Oc2nc3ccc(Cl)cc3o2)cc1 [Phenoxaprop-P-ethyl, phenoxaprop-P-ethyl, reference compound]
Rice; 4-leaf stage, 0.025 kg/ha
  Plant damage (herbicidal activity), visually evaluated, Rice: 20%
Rice; 4-leaf stage, 0.05 kg/ha
  Plant damage (herbicidal activity), visually evaluated, Rice: 30%
Rice; 4-leaf stage, 0.1 kg/ha
  Plant damage (herbicidal activity), visually evaluated, Rice: 70%
Rice; 4-leaf stage, 0.4 kg/ha
  Plant damage (herbicidal activity), visually evaluated, Rice: 80%
Barnyard grass; 0.025 kg/ha
  Plant damage (herbicidal activity), visually evaluated, Barnyard grass: 90%
Barnyard grass; 0.05 kg/ha
  Plant damage (herbicidal activity), visually evaluated, Barnyard grass: 100%
Barnyard grass; 0.1 kg/ha
  Plant damage (herbicidal activity), visually evaluated, Barnyard grass: 100%
Barnyard grass; 0.4 kg/ha
  Plant damage (herbicidal activity), visually evaluated, Barnyard grass: 100%
[1]; wheat, 0.025 kg/ha, foliage treatment
  Plant damage (herbicidal activity), visually evaluated, TRZAW: 0%
[1]; wheat, 0.1 kg/ha, foliage treatment
  Plant damage (herbicidal activity), visually evaluated, TRZAW: 10%
[1]; wheat, 0.2 kg/ha, foliage treatment
  Plant damage (herbicidal activity), visually evaluated, TRZAW: 10%
[2]; barley, 0.025 kg/ha, foliage treatment
  Plant damage (herbicidal activity), visually evaluated, HORVU: 0%
[2]; barley, 0.1 kg/ha, foliage treatment
  Plant damage (herbicidal activity), visually evaluated, HORVU: 20%
[2]; barley, 0.2 kg/ha, foliage treatment
  Plant damage (herbicidal activity), visually evaluated, HORVU: 40%
[3]; soy bean, 0.025 kg/ha, foliage treatment
  Plant damage (herbicidal activity), visually evaluated, GLXMA: 0%
[3]; soy bean, 0.1 kg/ha, foliage treatment
  Plant damage (herbicidal activity), visually evaluated, GLXMA: 0%
[3]; soy bean, 0.2 kg/ha, foliage treatment
  Plant damage (herbicidal activity), visually evaluated, GLXMA: 0%
[4]; rice, 0.025 kg/ha, foliage treatment
  Plant damage (herbicidal activity), visually evaluated, ORYSA: 0%
[4]; rice, 0.1 kg/ha, foliage treatment
  Plant damage (herbicidal activity), visually evaluated, ORYSA: 0%
[4]; rice, 0.2 kg/ha, foliage treatment
  Plant damage (herbicidal activity), visually evaluated, ORYSA: 0%
[5]
  Herbicidal effect (0~100), 20 days, Echinochloa crus-galli var. crus-galli: 100%
Echinochloa oryzicola
  Herbicidal effect (0~100), 20 days, Echinochloa oryzicola: 100%
[6]; 0.025 kg/ha
  Plant damage (herbicidal activity), visually evaluated, ECHOG: 30%
[6]; 0.1 kg/ha
  Plant damage (herbicidal activity), visually evaluated, ECHOG: 100%
[6]; 0.2 kg/ha
  Plant damage (herbicidal activity), visually evaluated, ECHOG: 100%
[7]; 0.025 kg/ha
  Plant damage (herbicidal activity), visually evaluated, SETVIR: 20%
[7]; 0.1 kg/ha
  Plant damage (herbicidal activity), visually evaluated, SETVIR: 100%
[7]; 0.2 kg/ha
  Plant damage (herbicidal activity), visually evaluated, SETVIR: 100%
[8]; 0.025 kg/ha
  Plant damage (herbicidal activity), visually evaluated, SORBI: 50%
[8]; 0.1 kg/ha
  Plant damage (herbicidal activity), visually evaluated, SORBI: 100%
[8]; 0.2 kg/ha
  Plant damage (herbicidal activity), visually evaluated, SORBI: 100%
[9]; 0.025 kg/ha
  Plant damage (herbicidal activity), visually evaluated, PANDI: 30%
[9]; 0.1 kg/ha
  Plant damage (herbicidal activity), visually evaluated, PANDI: 100%
[9]; 0.2 kg/ha
  Plant damage (herbicidal activity), visually evaluated, PANDI: 100%
[10]; 0.025 kg/ha
  Plant damage (herbicidal activity), visually evaluated, ARTHIS: 30%
[10]; 0.1 kg/ha
  Plant damage (herbicidal activity), visually evaluated, ARTHIS: 100%
[10]; 0.2 kg/ha
  Plant damage (herbicidal activity), visually evaluated, ARTHIS: 100%
[11]; 0.025 kg/ha
  Plant damage (herbicidal activity), visually evaluated, ZEAMX: 30%
[11]; 0.1 kg/ha
  Plant damage (herbicidal activity), visually evaluated, ZEAMX: 100%
[11]; 0.2 kg/ha
  Plant damage (herbicidal activity), visually evaluated, ZEAMX: 100%
[12]; 0.025 kg/ha
  Plant damage (herbicidal activity), visually evaluated, DIGSA: 40%
[12]; 0.1 kg/ha
  Plant damage (herbicidal activity), visually evaluated, DIGSA: 100%
[12]; 0.2 kg/ha
  Plant damage (herbicidal activity), visually evaluated, DIGSA: 100%
Rice (Nampyung rice)
  Harmful effect, 20 days: 23%
  Harmful effect, 30 days: 38%
